Read-outs that look alike come from different tables or passages of the source. Values belong to the compound of their own block, whether it stands above or below them.
Assays:
[1] = PAMPA passive permeability; format: in vitro ADME
human PANK3 = human PANK3 (Homo sapiens, UniProt Q9H999); settings: tested up to 10 μM
Plasma Protein [2] = settings: rat; previously determined ref 8; cited from earlier work
Caco2 = settings: previously determined ref 8; cited from earlier work
[3] = passive permeability; previously determined ref 8; cited from earlier work
[4] = mouse, rat, and human plasma; previously determined ref 8; cited from earlier work
Plasma Protein [5] = settings: human; previously determined ref 8; cited from earlier work
Plasma Protein [6] = settings: mouse; previously determined ref 8; cited from earlier work

Sequence of human PANK3 (Q9H999 whole entry): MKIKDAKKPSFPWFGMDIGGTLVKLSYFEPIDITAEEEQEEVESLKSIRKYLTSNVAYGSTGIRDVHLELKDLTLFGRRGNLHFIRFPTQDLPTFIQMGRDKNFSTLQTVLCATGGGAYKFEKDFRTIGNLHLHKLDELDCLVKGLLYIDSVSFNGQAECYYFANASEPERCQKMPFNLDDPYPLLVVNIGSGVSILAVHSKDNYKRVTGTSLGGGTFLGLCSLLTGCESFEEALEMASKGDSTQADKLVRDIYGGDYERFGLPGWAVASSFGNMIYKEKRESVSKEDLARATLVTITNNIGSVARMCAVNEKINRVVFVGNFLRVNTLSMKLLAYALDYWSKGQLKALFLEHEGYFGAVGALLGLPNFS

- PAMPA [1]: 1232 1 × 10^−6 cm/s
Structure (SMILES): CC(C)(C)c1ccc(NC(=O)N2CCN(c3ccc(C#N)cn3)CC2)cc1 [Compound 1, N-(4-(tert-butyl)phenyl)-4-(5-cyanopyridin-2-yl) piperazine-1-carboxamide]

- PANK3 inhibitory activity in words (human PANK3): inactive
Structure (SMILES): N#Cc1ccc(N2CCN(C(=O)Nc3ccc(Br)cc3)CC2)nc1 [Compound 14, N-(4-bromophenyl)-4-(5-cyanopyridin-2-yl)piperazine-1-carboxamide]

- PANK3 inhibitory activity in words (human PANK3): inactive
Structure (SMILES): N#Cc1ccc(N2CCN(C(=O)Nc3ccc(C(F)(F)F)cc3)CC2)nc1 [Compound 18, 4-(5-cyanopyridin-2-yl)-N-(4-(trifluoromethyl)phenyl)piperazine-1-carboxamide]

More lines, now with the values behind:

Structure (SMILES): CCc1ccc(NC(=O)N2CCN(c3ccc(C#N)cn3)CC2)cc1 [Compound 3, 4-(5-cyanopyridin-2-yl)-N-(4-ethylphenyl)piperazine-1-carboxamide]
- PANK3 inhibitory activity in words (human PANK3): did not show activity

Structure (SMILES): CCCCc1ccc(NC(=O)N2CCN(c3ccc(C#N)cn3)CC2)cc1 [Compound 8, N-(4-butylphenyl)-4-(5-cyanopyridin-2-yl)piperazine-1-carboxamide]
- PANK3 inhibitory activity in words (human PANK3): did not show activity

Structure (SMILES): CC(C)c1ccc(C(=O)N2CCN(c3ccc(C#N)cn3)CC2)cc1 [Compound 28, 6-(4-(4-isopropylbenzoyl)piperazin-1-yl) nicotinonitrile]
- PANK3 inhibitory activity in words (human PANK3): complete loss of activity

Structure (SMILES): CC(C)c1ccc(C(=O)CN2CCN(c3ccc(C#N)cn3)CC2)cc1 [Compound 32, 6-(4-(2-(4-isopropylphenyl)-2-oxoethyl)piperazin-1-yl)nicotinonitrile]
- PANK3 inhibitory activity in words (human PANK3): loss of activity

Structure (SMILES): CC(C)c1ccc(NC(=O)N2CCN(c3ccc(C#N)nn3)CC2)cc1 [Compound 56, 4-(6-cyanopyridazin-3-yl)-N-(4-isopropylphenyl) piperazine-1-carboxamide]
- PAMPA [1]: 316 1 × 10^−6 cm/s

Structure (SMILES): CC(C)c1ccc(CC(=O)N2CCN(c3ccc(C#N)nn3)CC2)cc1 [Compound 57, 6-(4-(2-(4-isopropylphenyl)acetyl)piperazin-1-yl) pyridazine-3-carbonitrile]
- Plasma Protein Binding (Plasma Protein [2]): 91%
- Caco2 Permeability A/B (Caco2): 30.2 ×10⁻⁶ cm/s
- PAMPA [3]: 413 1 × 10^−6 cm/s
- Plasma Stability T1/2 [4]: >48 h
- Plasma Protein Binding (Plasma Protein [5]): 93%
- Plasma Protein Binding (Plasma Protein [6]): 92%

Reference: PMC8693618 (Bioorganic & medicinal chemistry, 2021)
